The source of these data is ChEMBL document CHEMBL1201862, “PubChem BioAssay data set” (2004).

One assay has as its target Paired box protein Pax-8 (Homo sapiens, UniProt Q06710). As to the kind of experiment: inhibitors of PAX8-driven TPO luciferase reporter, dose response, RMG-I cells, cherry-pick (AID 687027).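 Further: luciferase reporter driven by Pax8 target thyroperoxidase promoter measured by SteadyGlo luminescence.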 The format is functional, cell-based. A general note: Reporter assays use an easily measured gene product as a stand-in for the process of interest.
Assay [1] is described as follows: Shn3 3'UTR reporter inhibitors, dose response, cell-based, Clone20 osteoblasts, firefly luciferase, cherry-picked (AID 624132).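 Further: firefly luciferase luminescence from reporter carrying the Shn3 3'UTR in osteoblasts.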 The format is functional.
A short description of assay [2]: HepG2 cell cytotoxicity, dose response, cytotoxicity control for Shn3 inhibitor project, CellTiter-Glo, cherry-picked (AID 624134). It is filed as functional, cell-based. (In ATP-based viability assays light output follows the ATP content of the culture.)
Assay [3] addresses T1, CAAX prenyl protease 2 (Saccharomyces cerevisiae S288c, UniProt Q03530).
T1 sequence (Q03530 whole entry): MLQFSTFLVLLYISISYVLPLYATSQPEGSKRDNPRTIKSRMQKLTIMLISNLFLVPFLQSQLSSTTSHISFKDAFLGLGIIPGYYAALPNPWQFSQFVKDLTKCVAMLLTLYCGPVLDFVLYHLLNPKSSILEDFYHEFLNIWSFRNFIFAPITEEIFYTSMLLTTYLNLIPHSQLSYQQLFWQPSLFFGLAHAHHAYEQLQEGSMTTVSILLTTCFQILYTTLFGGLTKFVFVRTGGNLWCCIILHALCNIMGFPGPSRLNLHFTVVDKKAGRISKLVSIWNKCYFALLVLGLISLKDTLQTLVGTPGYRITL
It is filed as biochemical.

The target in assay [4] is T2, DNA repair protein RAD52 homolog (Homo sapiens, UniProt P43351).
T2 sequence (P43351 whole entry): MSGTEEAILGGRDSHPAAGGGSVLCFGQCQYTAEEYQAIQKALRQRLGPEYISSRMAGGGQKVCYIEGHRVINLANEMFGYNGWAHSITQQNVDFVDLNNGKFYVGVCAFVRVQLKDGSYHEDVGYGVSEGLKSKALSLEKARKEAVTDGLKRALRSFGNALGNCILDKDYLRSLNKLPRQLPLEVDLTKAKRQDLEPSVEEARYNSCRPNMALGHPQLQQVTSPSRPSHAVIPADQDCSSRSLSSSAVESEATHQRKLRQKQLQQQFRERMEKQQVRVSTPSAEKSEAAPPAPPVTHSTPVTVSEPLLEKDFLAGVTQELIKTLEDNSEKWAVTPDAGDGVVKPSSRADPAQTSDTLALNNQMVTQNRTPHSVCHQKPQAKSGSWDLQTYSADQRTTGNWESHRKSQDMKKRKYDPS
The format is functional, biochemical.

Assay [5] in a line: cytotoxicity toward NIH3T3 fibroblasts, dose response, counter-screen, cell-based, ATP luminescence, mouse fibroblasts (AID 2010).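 Further: cells exposed to compound for about 90 hours before reading.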 It is filed as functional. Background: The purpose of a counterscreen is to sort out artefacts and off-target activity.
Assay [6] is described as follows: control 3'UTR Renilla luciferase suppression, dose response, counter-screen for Shn3 inhibitor project, cell-based, Clone20-Shn3RL, cherry-picked (AID 624133). It is filed as functional.
Assay [7] is described as follows: inhibitors of intracellular T. cruzi replication, confirmation, NIH3T3 host cells, beta-gal luminescence (AID 2044).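 Further: intracellular parasites grown in NIH/3T3 mouse fibroblasts as host cells; luminescent beta-galactosidase reporter signal from transgenic T. cruzi replicating inside host cells; inhibitors lower the luminescence signal.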 It is filed as functional, cell-based.
A further assay relates to INS1. As to the kind of experiment: beta cell apoptosis inhibitors, cytokine rescue, dose response, luminescence, retest (AID 449756).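 Further: cell death triggered by IL-1 beta plus TNF-alpha plus IFN-gamma mixture; protective hits raise ATP signal compared with cytokine alone wells.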 Conditions: Rattus norvegicus. It is filed as functional, cell-based.
Assay [8] addresses T3, CAAX prenyl protease 2 (Homo sapiens, UniProt Q9Y256).
T3 sequence (Q9Y256 whole entry): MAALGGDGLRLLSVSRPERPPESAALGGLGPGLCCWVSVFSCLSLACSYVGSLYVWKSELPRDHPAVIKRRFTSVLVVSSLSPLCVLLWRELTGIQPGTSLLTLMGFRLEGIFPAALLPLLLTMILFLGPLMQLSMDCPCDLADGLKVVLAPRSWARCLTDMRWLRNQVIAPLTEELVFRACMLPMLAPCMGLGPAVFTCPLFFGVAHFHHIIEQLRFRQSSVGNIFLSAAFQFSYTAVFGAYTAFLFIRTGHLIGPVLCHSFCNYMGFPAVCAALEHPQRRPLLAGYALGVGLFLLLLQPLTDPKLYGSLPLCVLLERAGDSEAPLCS
Nature of the assay: human Rce1 protease inhibitors, dose response, biochemical, yeast membranes, quenched-peptide fluorescence, cherry-pick (AID 588849).

The nature of assay [9]: inhibitors of PGC1a acetylation in cells, dose response, cell-based, cherry-picked samples (AID 720514).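 Further: potency may reflect raised or lowered acetylation signal.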 The format is functional.
The nature of assay [10]: MC4R antagonists, dose response, counter-screen for LGR2 antagonist project, cell-based, plate reader, cherry pick (AID 743444).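 Further: transfected HEK 293 cells stimulated with alpha-MSH peptide; potency of inhibitors of the alpha-MSH evoked signal.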 The format is functional.
A short description of assay [11]: HepG2 cell cytotoxicity, dose response, cytotoxicity control, plate reader, cherry-pick, antagonist series (AID 743416). The format is functional, cell-based.
The nature of assay [12]: HEK293 cell cytotoxicity, dose response, cytotoxicity control, plate reader, cherry-picked samples (AID 743446). The format is functional, cell-based.
Assay [13] can be described thus: LGR2 antagonists, dose response, cell-based, HEK293, CRE-luciferase reporter, cherry pick, set 2 (AID 743343).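 Further: transfected cells were stimulated with diluted bursicon conditioned medium after compound addition.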 The format is functional.
The nature of assay [14]: A549 cell cytotoxicity, dose response, cytotoxicity control, plate reader, cherry-pick, antagonist series (AID 743412). It is filed as functional, cell-based.
Assay [15] in a line: Fluorescence-based cell-based high throughput dose response assay for inhibitors of the interaction of nucleotide-binding oligomerization domain containing 2 (NOD2) and the receptor-interacting serine-threonine kinase 2 (RIPK2). The format is functional. The note with it: Homo sapiens.
The target in assay [16] is Heat shock protein HSP 90-alpha (Homo sapiens, UniProt P07900). The format is functional, organism-based.
The target of assay [17] is Photoreceptor-specific nuclear receptor (Homo sapiens, UniProt Q9Y5X4). Nature of the assay: NR2E3 inverse agonists, dose response, biochemical, TR-FRET (AID 463256). The format is functional.
Chain of Photoreceptor-specific nuclear receptor (Q9Y5X4 whole entry): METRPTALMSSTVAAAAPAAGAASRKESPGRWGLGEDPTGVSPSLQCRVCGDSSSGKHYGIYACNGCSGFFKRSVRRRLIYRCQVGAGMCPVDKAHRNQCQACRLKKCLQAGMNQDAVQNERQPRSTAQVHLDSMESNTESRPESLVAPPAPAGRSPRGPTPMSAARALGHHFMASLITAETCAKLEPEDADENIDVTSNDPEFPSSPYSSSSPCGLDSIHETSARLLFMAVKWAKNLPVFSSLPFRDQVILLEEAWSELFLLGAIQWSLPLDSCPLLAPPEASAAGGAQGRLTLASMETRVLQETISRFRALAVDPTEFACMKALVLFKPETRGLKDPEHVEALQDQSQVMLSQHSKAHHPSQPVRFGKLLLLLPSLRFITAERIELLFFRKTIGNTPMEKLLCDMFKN
The target in assay [18] is Peroxisome proliferator-activated receptor gamma/Nuclear receptor corepressor 2 (Homo sapiens, UniProt P37231+Q9Y618). As to the kind of experiment: Counterscreen for NR2E3 inverse agonists: TR-FRET-based biochemical high throughput dose response assay to identify inverse agonists of the interaction between peroxisome proliferator-activated receptor gamma (PPARg) and nuclear receptor co-repressor 2 (NCOR2). The format is functional.
Chain of Peroxisome proliferator-activated receptor gamma/Nuclear receptor corepressor 2 (P37231 whole entry): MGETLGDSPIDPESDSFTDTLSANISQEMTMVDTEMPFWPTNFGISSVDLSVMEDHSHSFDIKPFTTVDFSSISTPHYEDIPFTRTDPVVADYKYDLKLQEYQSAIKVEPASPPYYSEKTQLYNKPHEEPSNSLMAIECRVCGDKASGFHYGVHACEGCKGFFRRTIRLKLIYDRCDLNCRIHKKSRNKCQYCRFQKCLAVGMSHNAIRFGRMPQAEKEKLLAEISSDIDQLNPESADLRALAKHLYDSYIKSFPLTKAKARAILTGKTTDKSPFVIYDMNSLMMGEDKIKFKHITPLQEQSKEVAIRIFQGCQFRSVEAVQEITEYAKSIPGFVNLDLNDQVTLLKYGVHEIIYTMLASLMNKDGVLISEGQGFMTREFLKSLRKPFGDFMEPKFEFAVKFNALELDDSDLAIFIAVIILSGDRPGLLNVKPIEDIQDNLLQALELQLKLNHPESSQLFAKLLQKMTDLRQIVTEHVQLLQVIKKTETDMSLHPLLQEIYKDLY
Chain of Peroxisome proliferator-activated receptor gamma/Nuclear receptor corepressor 2 (Q9Y618 whole entry): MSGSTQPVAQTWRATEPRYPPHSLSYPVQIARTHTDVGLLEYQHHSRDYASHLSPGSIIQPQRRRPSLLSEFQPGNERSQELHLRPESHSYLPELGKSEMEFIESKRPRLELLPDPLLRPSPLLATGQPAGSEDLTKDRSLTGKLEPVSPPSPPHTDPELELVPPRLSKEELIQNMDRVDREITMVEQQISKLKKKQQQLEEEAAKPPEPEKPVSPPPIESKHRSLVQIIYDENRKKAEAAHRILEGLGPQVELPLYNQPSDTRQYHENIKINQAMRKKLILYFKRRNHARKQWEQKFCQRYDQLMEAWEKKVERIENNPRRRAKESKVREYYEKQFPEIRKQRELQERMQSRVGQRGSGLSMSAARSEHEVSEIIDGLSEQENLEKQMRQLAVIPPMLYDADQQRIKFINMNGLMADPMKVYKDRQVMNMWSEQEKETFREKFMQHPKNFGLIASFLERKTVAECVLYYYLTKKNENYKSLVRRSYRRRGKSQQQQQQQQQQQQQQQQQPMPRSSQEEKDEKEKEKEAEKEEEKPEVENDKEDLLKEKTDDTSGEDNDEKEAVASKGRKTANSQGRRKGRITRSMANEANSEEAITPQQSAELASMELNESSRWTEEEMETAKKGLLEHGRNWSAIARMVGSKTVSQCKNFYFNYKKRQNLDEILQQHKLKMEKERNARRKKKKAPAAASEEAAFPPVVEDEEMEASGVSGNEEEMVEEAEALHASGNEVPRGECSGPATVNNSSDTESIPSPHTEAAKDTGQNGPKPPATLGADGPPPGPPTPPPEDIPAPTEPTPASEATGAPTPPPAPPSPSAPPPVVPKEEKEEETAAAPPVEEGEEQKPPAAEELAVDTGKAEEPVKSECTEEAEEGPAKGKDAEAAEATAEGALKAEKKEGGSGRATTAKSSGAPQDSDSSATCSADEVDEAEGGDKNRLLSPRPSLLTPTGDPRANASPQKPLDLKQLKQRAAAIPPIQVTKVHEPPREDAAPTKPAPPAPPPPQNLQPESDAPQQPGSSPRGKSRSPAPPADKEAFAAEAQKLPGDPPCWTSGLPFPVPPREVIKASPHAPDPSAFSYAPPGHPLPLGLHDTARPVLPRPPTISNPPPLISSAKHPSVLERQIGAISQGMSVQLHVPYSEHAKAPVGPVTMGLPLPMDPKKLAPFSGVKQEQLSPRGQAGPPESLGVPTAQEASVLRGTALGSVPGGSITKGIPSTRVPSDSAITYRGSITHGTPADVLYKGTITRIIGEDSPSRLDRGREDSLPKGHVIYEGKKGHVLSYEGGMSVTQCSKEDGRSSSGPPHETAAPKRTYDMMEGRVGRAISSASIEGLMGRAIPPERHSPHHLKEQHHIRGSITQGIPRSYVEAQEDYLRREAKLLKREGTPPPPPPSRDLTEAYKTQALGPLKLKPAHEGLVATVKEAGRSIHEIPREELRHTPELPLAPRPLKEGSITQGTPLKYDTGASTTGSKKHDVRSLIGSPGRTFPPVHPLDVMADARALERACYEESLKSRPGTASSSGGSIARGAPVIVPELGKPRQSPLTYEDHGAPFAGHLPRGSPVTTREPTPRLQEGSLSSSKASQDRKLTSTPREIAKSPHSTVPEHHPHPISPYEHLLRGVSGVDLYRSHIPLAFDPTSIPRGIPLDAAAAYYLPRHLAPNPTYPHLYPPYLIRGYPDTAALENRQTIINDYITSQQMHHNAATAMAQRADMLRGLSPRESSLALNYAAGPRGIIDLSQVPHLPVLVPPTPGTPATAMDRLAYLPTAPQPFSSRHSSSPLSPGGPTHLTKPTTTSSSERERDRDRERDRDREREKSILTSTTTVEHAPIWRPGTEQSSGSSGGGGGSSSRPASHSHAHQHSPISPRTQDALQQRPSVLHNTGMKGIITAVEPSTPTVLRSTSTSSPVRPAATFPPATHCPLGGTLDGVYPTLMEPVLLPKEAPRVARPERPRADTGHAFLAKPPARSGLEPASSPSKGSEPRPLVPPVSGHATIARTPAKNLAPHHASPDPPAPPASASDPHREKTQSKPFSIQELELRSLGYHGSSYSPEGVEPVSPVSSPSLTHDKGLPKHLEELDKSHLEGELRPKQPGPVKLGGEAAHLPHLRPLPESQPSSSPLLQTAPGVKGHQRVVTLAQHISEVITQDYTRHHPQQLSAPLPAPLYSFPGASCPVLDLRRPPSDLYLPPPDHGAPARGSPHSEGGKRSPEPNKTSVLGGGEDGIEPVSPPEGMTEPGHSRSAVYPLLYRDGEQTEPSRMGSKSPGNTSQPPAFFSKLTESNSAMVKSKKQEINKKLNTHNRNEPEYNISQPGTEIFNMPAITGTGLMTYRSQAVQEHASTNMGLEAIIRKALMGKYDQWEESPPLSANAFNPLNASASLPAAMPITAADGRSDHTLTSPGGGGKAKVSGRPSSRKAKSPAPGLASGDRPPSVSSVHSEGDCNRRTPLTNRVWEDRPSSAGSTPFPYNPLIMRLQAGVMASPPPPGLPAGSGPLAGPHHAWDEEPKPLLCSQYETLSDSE

Assay [19] concerns the target T4, Oxysterols receptor LXR-beta (Homo sapiens, UniProt P55055).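 Further: Cell-based luminescence dose-response assay of agonist activity at LXR, run as a confirmatory counterscreen to a daf-12 agonist screen; HEK293 cells with Gal4-LXR fusion and GAL4-driven luciferase reporter; agonist potency from rising luciferase signal of a Gal4-LXR reporter.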
T4 sequence (P55055 whole entry): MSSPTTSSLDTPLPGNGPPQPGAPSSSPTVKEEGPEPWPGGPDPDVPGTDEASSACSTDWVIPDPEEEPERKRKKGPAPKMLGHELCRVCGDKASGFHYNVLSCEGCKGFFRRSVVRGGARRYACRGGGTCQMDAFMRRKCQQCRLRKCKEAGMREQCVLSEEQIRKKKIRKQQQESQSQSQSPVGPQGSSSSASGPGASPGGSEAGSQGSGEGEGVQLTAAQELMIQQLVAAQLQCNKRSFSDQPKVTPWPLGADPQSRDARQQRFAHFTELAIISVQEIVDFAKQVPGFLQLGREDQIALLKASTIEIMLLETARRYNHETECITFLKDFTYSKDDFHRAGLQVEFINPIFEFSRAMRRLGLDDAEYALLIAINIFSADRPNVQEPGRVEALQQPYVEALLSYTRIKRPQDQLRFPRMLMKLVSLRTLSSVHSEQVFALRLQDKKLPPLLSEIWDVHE
It is filed as functional, cell-based.

The target in assay [20] is FAD-linked sulfhydryl oxidase ALR (Homo sapiens, UniProt P55789). As to the kind of experiment: inhibitors of human ALR sulfhydryl oxidase, dose response, biochemical, H2O2 detection, luminescence, cherry-pick (AID 493248).
Chain of FAD-linked sulfhydryl oxidase ALR (P55789 whole entry): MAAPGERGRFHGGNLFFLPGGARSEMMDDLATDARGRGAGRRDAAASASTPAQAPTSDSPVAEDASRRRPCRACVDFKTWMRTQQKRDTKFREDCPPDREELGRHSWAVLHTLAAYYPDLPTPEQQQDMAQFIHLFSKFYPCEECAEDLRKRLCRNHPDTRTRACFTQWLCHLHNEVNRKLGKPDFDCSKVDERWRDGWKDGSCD
Assay [21] in a line: A2780 ovarian cancer cell cytotoxicity, dose response, cytotoxicity control, plate reader, dry powder samples (AID 743046). The format is functional, cell-based.
The nature of assay [22]: P. falciparum Dd2 growth inhibitors, dose response, SYBR Green, cherry-picked samples (AID 1159567). It is filed as functional, cell-based.
A short description of assay [23]: HepG2 cell cytotoxicity, dose response, cytotoxicity control, cherry-picked samples (AID 1159577). It is filed as functional, cell-based.

Activity calls are given as the source filed them. A value given as a limit tells only on which side of the number the result lay.

Chain of Paired box protein Pax-8 (Q06710 whole entry): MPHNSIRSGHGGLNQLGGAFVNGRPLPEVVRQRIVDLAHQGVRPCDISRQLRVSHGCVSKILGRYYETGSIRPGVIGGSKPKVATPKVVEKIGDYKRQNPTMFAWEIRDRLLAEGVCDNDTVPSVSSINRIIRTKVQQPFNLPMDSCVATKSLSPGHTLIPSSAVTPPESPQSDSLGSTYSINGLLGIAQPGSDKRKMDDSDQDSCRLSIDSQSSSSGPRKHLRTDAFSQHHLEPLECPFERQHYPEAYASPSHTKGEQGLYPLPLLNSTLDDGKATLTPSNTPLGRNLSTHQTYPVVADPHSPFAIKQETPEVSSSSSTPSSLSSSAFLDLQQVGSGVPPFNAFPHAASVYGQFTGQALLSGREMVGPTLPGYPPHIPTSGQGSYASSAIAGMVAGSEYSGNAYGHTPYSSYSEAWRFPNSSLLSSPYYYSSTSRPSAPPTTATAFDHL

A word on the AC50: it is the concentration at which the activity in the assay is half-maximal. As usually defined, the EC50 is the concentration needed to bring the measured effect to its halfway point. As to `C[n+]1c2n(c3ccccc31)N=C(c1cc(C(C)(C)C)c(O)c(C(C)(C)C)c1)CS2`, the AC50 was 0.906 µM (active) on Paired box protein Pax-8; 5.92 µM (active) in [1]; 13 µM (active) in assay [2]; 9.21 µM (active) on CAAX prenyl protease 2 [3]; 13.4 µM (active) in assay [4]; 7.16 µM (active) in [6]. In addition, the results for the concentration at half-maximal activity (AC50) with INS1 and at CAAX prenyl protease 2 [8] were 0.452 µM (active) and > 100 µM (inactive), respectively. Also, the values for the EC50 in assay [5] and in assay [7] were > 60 µM (not active) and 0.496 µM (active), respectively.

Consider `Cn1nnnc1Sc1ncnc2scc(-c3cccc(S(C)(=O)=O)c3)c12`, for which the AC50 in [9] was 35.3 µM (active); at Paired box protein Pax-8, 2.03 µM (active); in [10], 2.82 µM (active); in assay [11], 17.6 µM (active); in assay [12] it was 25.8 µM (active); in [13], 4.13 µM (active). Besides, the AC50 in assay [14] was 14.9 µM (active).

By IC50 is commonly meant the point on the concentration scale where inhibition reaches its midpoint. Regarding `Cc1ccccc1Oc1cc(-n2ncc(Cl)c(Cl)c2=O)ncn1`, the AC50 in assay [9] is 4.25 µM (active); in [10], 9.42 µM (active); in [11], 1.65 µM (active); in [16] it was 3.94 µM (active); in [12] it was 4.45 µM (active); with INS1 it was 3.02 µM (active). In addition, the half-maximal activity concentration (AC50) is 7.89 µM (active) in [13] and 4.53 µM (active) in [14]. In addition, in [15], the IC50 was 0.882 µM (active).

Regarding `O=C(Nc1ccc(-c2nc3ncccc3o2)cc1)c1ccc(Br)o1`, the IC50 in [17] is 3.5 µM (active); in [18], 3.7 µM (active).

On to `Cc1ccsc1C(=O)Nc1nccs1`, for which the results for the IC50 in [17] and in assay [18] were > 39.9 µM (not active) and 27.3 µM (not active), respectively.

For `O=C(O)c1cc(-c2ccc3c(c2)OCO3)nc2ccccc12`, the AC50 in assay [9] is 31 µM (active).

For the molecule `COc1ccc(-c2cn3c4c(sc3n2)CCCC4)cc1`, the EC50 (in “cells”; in [19]) was > 67.5 µM (inactive) each time. Moreover, the AC50 in [20] was 0.325 µM (active).

Turning to `Cc1noc(C)c1S(=O)(=O)Nc1ccc2c(c1)C(=O)N([C@@H](C)CO)C[C@H](C)[C@H](CN(C)C(=O)Nc1ccc(C(F)(F)F)cc1)OCCCC[C@H](C)O2`, the AC50 at Paired box protein Pax-8 was 14.2 µM (active); in assay [21], 4.83 µM (active).

For the molecule `COc1ccccc1NC(=O)N1CCCCN2[C@@H](CO)[C@H](c3ccc(C#Cc4ccccc4)cc3)[C@@H]2C1`, the concentration at half-maximal activity (AC50) in assay [22] was < 0.3 µM (active); in [23], 9.96 µM (active).
